Common to all, as to assay type: functional
Test [1] is filed under the species Rattus norvegicus. Description: Decrease in body weight in nondiabetic rat. Set-up: scale not given: the % may be the effect or the level left.
Test [2] concerns Rattus norvegicus. Description: Antihyperglycemic activity in streptozotocin-induced nonfasted diabetic rat assessed as decrease in blood glucose level at 20 mg/kg, po administered for 3 days measured 1 hr after last dose. More on the design: scale not given: the % may be the effect or the level left.
Test [3] concerns Rattus norvegicus. Description: Effect on nondiabetic rat assessed as blood glucose level per 100 mL at 20 mg/kg, po.
Test [4] has as its system Rattus norvegicus. Description: Antihyperglycemic activity in streptozotocin-induced nonfasted diabetic rat assessed as decrease in blood glucose level at 30 mg/kg, po administered for 3 days measured 1 hr after last dose. More on the design: scale not given: the % may be the effect or the level left.

Structures are written as SMILES.

For `COc1cc(O)cc2c1C(=O)C(O)(Cc1ccc(O)cc1)O2` (configuration not stated) [CARPUSIN], the results for the Activity in the test listed under Rattus norvegicus [1], with Rattus norvegicus [2] and with Rattus norvegicus [3] were 20%, 33% and 64%, respectively.
`CN(C)C(=N)NC(=N)N` [METFORMIN]: in the test on Rattus norvegicus [4], the Activity was found to be 48%.
As to `COc1cc(/C=C/c2ccc(O)cc2)cc(OC)c1` [PTEROSTILBENE], the results for the Activity in the test filed under Rattus norvegicus [1], with Rattus norvegicus [2] and in the test with Rattus norvegicus [3] were 20%, 11% and 65%, respectively.

The values are drawn from ChEMBL document CHEMBL1146404, “Antihyperglycemic activity of phenolics from Pterocarpus marsupium” (1997).
